Results reported in patent publication US20240041813A1, “VERY-LONG-CHAIN POLYUNSATURATED FATTY ACIDS, ELOVANOID HYDROXYLATED DERIVATIVES, AND METHODS OF USE” (priority 2020, published 2024).
“Also recorded” adds a separate entry of the source.

Experiments:
[1] = test system: receptor-binding domain (RBD) of the SARS-CoV-2 spike; assay type: cell-based, human
[2] = test system: Alexa 594-RBD; assay type: in vivo; settings: rat cornea after alkali burn; 14 days treatment; Alexa 594-RBD 1 μg/eye, 3 times at day 15, examined a day later
[3] = test system: ACE2; assay: Rat cornea alkali burn: corneal RNA-seq, Ace2 gene expression; assay type: in vivo; settings: rat cornea after alkali burn; eye drops 3 times/day for 14 days; RNA-seq day 14
Method: The rats were anesthetized by intraperitoneal injection of Ketamine (50-100 mg/kg) plus xylazine (5-10 mg/kg). A 4 mm diameter filter paper soaked in 1 N NaOH was placed on the central cornea of the right eye for 45 seconds, and then the eye was thoroughly washed with […] of saline. After injury, the rats were randomly divided into five treatment groups: vehicle; lipoxin A4 (LXA4) from Cayman Chemical (Ann Arbor, MI, USA); R,R Resolvin D6 isomer (RvD6i), R,R neuroprotection D (NPD1), and elovanoid (ELV)-N32. All lipid solutions were prepared at the final concentration of […] using PBS with the minimal contamination of ethanol by evaporating the ethanol and immediately dissolve the lipids in PBS, then vortex well for 2 min. Topical administration (20 μl) was done 3×/day for 14 days. The experiments were double-blinded with the lipid mediators coded during the whole experiments. At the end of the study, when all data was collected, the code was opened.
Injured corneas (n=5/condition) were harvested and homogenized with TRIzol (Thermo Fisher Scientific) on ice with a glass Dounce homogenizer. RNA sequencing was performed as described^14. Briefly, after mRNA extraction and determination of purity, 8 ng of total RNA was reverse transcribed, and total cDNAs were amplified using ISPCR primer, and the library was made with the Nextera XT DNA library preparation kit (Illumina, San Diego, CA, USA). The libraries were pooled with the same molarity and sequenced using the NextSeq 500/550 High Output Kit v2 (75 cycles, Illumina). After demultiplexing, RNA-seq data were aligned to the Rattus Norvegicus reference genome (.ensembl.org/pub/release-98/fasta/rattus_norvegicus/dna/) using the Subread package v2.0.1 alignment function39. The BAM files for sequencing data alignment were counted using featureCounts function of Subread tool^40 using the macOS Catalina. The raw count data were subjected to differential gene expression analysis using DESeq2 package for R^41 with the vehicle group as reference. The adjusted p-values were named as the false discover rate (FDR).

[4] = test system: Cdkn2a (p16INK4a); assay: HCEC challenged with IFNγ: Cdkn2a gene expression; assay type: cell-based, human; settings: IFNγ 100 ng/ml
Text: All experiments with human corneal epithelial cells were approved by the Institutional Review Board of LSUHNO and conducted in accordance with NIH guidelines. HCEC were kept frozen in the laboratory at passage 2544. Cells were maintained in keratinocyte growth (KGM) medium containing the keratinocyte basal medium (KBM) (Lonza: CC-3101) supplemented with bovine pituitary extract (BPE), hEGF, Insulin, Hydrocortisone and Gentamicin Sulfate-Amphotericin (GA-1000) (Lonza, Cat. CC-4131). For all experiments, cells were seeded at 30,000 cells/cm2.
(§1) For screening the stimulation of receptor ACE2 by cytokines, the HCEC were cultured with KGM until 50-60% confluence. Then, changed to KBM containing IL-1β, -2, -6 and 8, IFN-α, -ε, and -γ or TNFα at 1, 10 or 100 ng/ml. The cells were harvested after 6 hours and analyze for the gene expression of Ace2. In other experiments, HCEC were stimulated with IFNγ, and thereafter, lipid mediators were added. For the Alexa 594-conjugated RBD binding, IFNγ was used as a cytokine trigger. At 12 hours after cytokine exposure and lipid mediator treatments, […] of labeled RBD was added to the medium. The evaluation of RBD binding was conducted 24 hours after.
Quantitative PCR was performed with the Biomark HD system (Fluidigm, San Francisco, CA, USA). Briefly, 200 ng of RNA was reverse-transcribed using iScript Reverse Transcription Supermix (Bio-Rad), and the cDNA was pre-amplified using the PreAmp Master Mix (PN 100-5580; Fluidigm). The cDNA was then subjected to Exonuclease I treatment and diluted 5 times in TE Buffer. The qPCR reaction mixture and primer reaction mixture were made and loaded into the Biomark 96.96 IFC™ (Integrated Fluidic Circuit). The enzyme reaction was mixed using Juno™ Controller (Fluidigm) and run using the cycling program of (i) 70° C. for 40 minutes followed by 60° C. for 30 seconds, (ii) hot start for 1 minute at 95° C., (iii) 30 cycles of denaturation at 96° C. for 5 seconds, and annealing at 60° C. for 20 seconds, and (iv) melting curves between 60° C. and 95° C. with 1° C. increments/3 seconds. The Ct value of target genes was normalized to the house-keeping genes Gapdh, Hprt1, and Tfrc before normalized to the vehicle group. Relative fold changes from the ΔΔCT calculation was used to make the graph.

[5] = test system: Alexa 594-RBD; assay: HCEC challenged with IFNγ: Alexa 594-RBD binding (unbiased imaging, Imaris); assay type: cell-based, human; settings: IFNγ 100 ng/ml and lipid mediators 200 nM for 12 h, images 24 h after RBD
Method: as §1
Twenty-four hours after Alexa 594-RBD was added to the HCEC, the cells were washed with PBS (3×/5 min) and fixed with 4% paraformaldehyde for 30 minutes at RT. The HCEC were washed 2× with PBS and stained with Hoechst 33342 Solution (ThermoFisher Scientific, Cat. 62249) for 30 minutes at RT. Next, the HCEC were washed 2× with PBS before imaging. For unbiased data collection, 7 designated areas were defined in each well (FIG. 63) and captured with an Olympus FV3000 confocal laser scanning microscopy under “Multi Area Time Lapse” (MATL) mode. All images were acquired with the same parameters and Z-section range, converted and inputted in the Imaris software version 9.5.1. The threshold for the control images was defined by the HCEC without Alexa 594-conjugated RBD of S protein and using it as a threshold filter for the Imaris batch image processing function. The sum of total intensity for each image was used to evaluate the binding efficiency.

[6] = test system: human corneal epithelial cells (HCEC); assay: HCEC challenged with IFNγ: SASP secretome (β-Gal staining); assay type: cell-based; settings: HCEC 24 h after IFN-γ challenge

## CC/C=C\CC(O)\C=C/C=C/C=C/C(O)C/C=C\C/C=C\CCCCCCCCCCCCC(=O)O [ELV-N32, (14Z,17Z,20R,21E,23E,25Z,27S,29Z)-20,27-dihydroxydo-triaconta-14,17,21,23,25,29-hexaenoic acid]
[1]
  RBD of the SARS-CoV-2 spike entrance / internalized RBD: diminishes
  RBD protein internalization (RBD located below the membrane line): decrease
[2]
  binding of Alexa 594-RBD to injured cornea: decrease; also recorded: counteracted
[3]
  Ace2 gene expression levels: decrease
[4]
  Cdkn2a activation: decrease
[5]
  IFNγ-stimulated Alexa 594-RBD binding: decrease; also recorded: attenuated
[6]
  senescence programming genes and SASP secretome activation (β-Gal): blocked; also recorded: suppressed
